Measured values taken from patent publication US20230150951A1, “2,5- OR 2,6-DISUBSTITUTED HYDROQUINONE DERIVATIVES WITH AT LEAST ONE CARBOXY, SULFO OR AMIDO GROUP USEFUL AS MEDICAMENTS” (OM PHARMA SA, priority 2020, published 2023).

How the values were obtained:
[1] = system: STZ-induced diabetes model; assay: STZ-induced diabetes and diabetic wound healing model; assay type: in vivo, CD-1 mice; conditions: IV; vs induced vehicle controls
Procedure: Diabetes murine models using streptozotocin (STZ-induced diabetes) were used to assess efficacy of compounds of the present invention for a diabetic wound healing and generate tissue samples to allow post in-life analysis of skin tissue.
These were purchased from Charles River and acclimated for 7 days upon arrival.
Aseptic technique and dosing: Although animals to be used in this study are immuno-competent, preparation of dosing solutions and dosing/weighing of animals were carried out in a sterile biosafety cabinet. IV dosing: Compounds were formulated in 5% DMSO: 10% Solutol: 10% PEG400: 75% PBS and pH adjusted to 7 with 0.5M NaOH solution. PO dosing: formulation is in water.
Animals were anaethetised and a full thickness 6 mm wound created using a sterilized biopsy punch. Wounds were imaged (Days 0). Animals were treated and imaged every 2 days out to day 14 (when control, non-diabetic mouse wounds were healed). Wound images were digitally assessed for area of wound and percentage closure versus time plotted graphically.
Treatment will continue for 2 weeks (14 days). Animal numbers in brackets are dosed for 7 days, then sampled for mid-study PD analysis.
Mid Study sampling: Following 7 days dosing 3 animals per group were killed and wound tissue removed and divided into 2 sections (A) and (B):
(A) First section is FFPE and stained with the following: H&E, Masson's Trichrome, CD31, TGF-β.
(B) Second section are homogenised and used for the following ELISAs: SOD, GTPx, Catalase, TNF-α, IL-6, TGF-β levels.

[2] = system: DBA/2 mouse strain with STZ induction of diabetes; assay: STZ-induced diabetic retinopathy and nephropathy model in DBA/2 mice; assay type: in vivo; conditions: one and two weeks, FIG. 9
Procedure: Therapeutic efficacy of the compounds according to the present invention was assessed using diabetic mouse model using the DBA/2 mouse strain with STZ induction of diabetes and follow diabetic retinopathy including kidney damage. Five weeks after induction of diabetes via low dose STZ injection for 5 consecutive days, the urinary albumin:Cr ratio is […] compared to 36.9 for age-matched controls.
For treatment of diabetic nephropathy, DBA/2 mice were induced with STZ (low dose for 5 consecutive days).
Treatment was performed for four weeks (IV dosing) with weekly assessment of blood glucose and urine albumin/creatinine levels. At the end of the treatment period animals, the following samples were taken: • Blood for measurement of glucose and Blood Urea Nitrogen (BUN) • Blood for measurement of serum creatinine • Urine for final albumin/creatinine ratio. • Kidney was resected and FFPE: Picro-Sirius Red, Masson's Trichrome and H&E staining was carried out to identify areas of fibrosis, along with evidence of Mesangial sclerosis, Arteriolar hyalinosis, Glomerular Basal Membrane (GBM) thickening
To assess compound effect on diabetic retinopathy, animals had weekly images taken via Fundus Camera. Immediately prior to sacrifice, animals were injected with FITC-dextran via tail vein. During sampling, the eyes were sampled and fixed in formalin. Retinal Flatmounts were prepared and examined fluorescently looking at compound effects on vascularity and leakiness of vessels (indicted by high background staining).

[3] = system: human primary cells; assay: BioMap Plus phenotypic profiling in human primary cell-based systems; conditions: 30, 10, 3.3, 1.1 μM
Procedure: A series of in vitro assays was performed using human primary cell-based assays modeling complex tissue and disease biology of organs (vasculature, immune system, skin, lung) and general tissue biology for phenotypic profiling of compounds in conditions that preserve crosstalk and feedback mechanisms relevant to in vivo outcomes.

[4] = system: ARPE-19 cells; assay: ROS and cytokine/VEGF mRNA production by ARPE-19 monolayer cells in non-diabetic and diabetic milieu; assay type: cell-based, human; conditions: ARPE19 monolayer; for ROS: ROS % to 25 mM D-Glucose; for IL-1β R.Q. mRNA / IL-6 R.Q. mRNA / IL-18 R.Q. mRNA / TNFα R.Q. mRNA / VEGF R.Q. mRNA: relative change vs 25 mM D-Gluc
Procedure: Outer Blood Retinal Barrier conditions: human retinal pigment epithelial cells (RPE) cultures ARPE-19, a spontaneously immortalised human RPE cell line were obtained from American Type Culture Collection (Manassas, Va., USA). ARPE-19 cells and they were cultured in euglycaemic conditions (D-glucose (D-Glc), 5.5 mmol/L) and hyperglycaemic conditions (D-glucose, 25 mmol/L) for 18 days at 37° C. under 5% (vol./vol.) CO2 in medium (DMEM/F12) supplemented with 10% (vol./vol.) FBS (Hyclone; Thermo Fisher Scientific, UT, USA) and 1% (vol./vol.) penicillin/streptomycin (Hyclone; Thermo Fisher Scientific). ARPE-19 cells from passage 20 were used and the medium changed every 3-4 days. For permeability studies, ARPE-19 cells were seeded at 400,000 cells/ml (80,000 RPE cells/well) in 0.33 cm^2 HTS-Transwells (Costar; Corning, N.Y., USA). For real-time PCR, western blot analysis and immunofluorescence cells are seeded at 20,000 cells/ml.
Experimental conditions and treatments: apart from the euglycemic condition, eighteen different conditions were tested in cells cultured under 25 mmol/L D-glucose:
• Proinflammatory cytokines were evaluated in ARPE-19 cells by RT-PCR and mRNA for IL-6, TNF-α, IL-1β, IL-18, VEGF, IL-10, FGF were measured using the double delta CT method 2-ΔΔCT with Cts values for the gene of interest and the endogenous human B-actin to obtain ΔCT; mRNA values were expressed as relative change with respect to the condition 25 mM D-Gluc. (ref: Livak K J, Analysis of Relative Gene Expression Data Using Real-Time Quantitative PCR and the 2-ΔΔCT Method, Methods, 2001, 25(4), 402-408, doi 10.1006/meth.2001.1262) • ROS production was evaluated using Cell Biolabs' OxiSelect™ Intracellular ROS Assay (Green Fluorescence) (Bionova, Madrid, Spain). The assay employs the cell-permeable fluorogenic probe 2′, 7′-Dichlorodihydrofluorescin diacetate (DCFH-DA), oxidized to highly fluorescent 2′, 7′-Dichlorodihydrofluorescein (DCF) by cellular ROS. • Endothelin-1, PDGF and VCAM-1 expression was analyzed in HREC monolayers by immunohistochemical analysis and by RT-PCR. • TJ expression (ZO) is analyzed in ARPE-19 and HREC monolayers by immunohistochemical analysis.

[5] = 25 mM D-Gluc, compound 25 μg/mL
[6] = 25 mM D-Gluc, compound 50 μg/mL
[7] = diabetic milieu (25 mM D-Gluc + VEGF, TNF-α, IL-1β), compound 25 μg/mL
[8] = diabetic milieu (25 mM D-Gluc + VEGF, TNF-α, IL-1β), compound 50 μg/mL

`O=C(O)c1cc(O)cc(CS(=O)(=O)Cc2cc(O)cc(C(=O)O)c2O)c1O` [IVc-059a, 3-((2,5-Dihydroxy-3-carboxyphenyl)methylsulfonylmethyl)-2,5-dihydroxybenzoic acid] was tested, and the Blood glucose levels [1] was “significant reduction”, the Blood glucose level [2] was “significantly reduced” and the “Antiproliferative effects on human primary cells” value [3] was “antiproliferative to human primary endothelial cells (1.1 μM)”. The “Cytotoxicity in BioMap Plus” value [3] was “not cytotoxic”, the Immunomodulatory activities [3] was “decreased sIL-10, sIL-2” and the Inflammation-related activities [3] was “decreased sTNFα”. For the same molecule, the “Number of annotated readouts” value [3] was “three”, the ROS [4, 5] was 62 ± 9% and the “IL-1β R.Q. mRNA” value [4, 5] was 0.20 ± 0.05 R.Q. The “IL-6 R.Q. mRNA” value [4, 5] was 0.28 ± 0.11 R.Q, the “IL-18 R.Q. mRNA” value [4, 5] was 0.07 ± 0.01 R.Q and the “TNFα R.Q. mRNA” value [4, 5] was 0.27 ± 0.08 R.Q. For the same molecule, the “VEGF R.Q. mRNA” value [4, 5] was 0.11 ± 0.01 R.Q, the ROS [4, 6] was 116 ± 12% and the “IL-1β R.Q. mRNA” value [4, 6] was 0.21 ± 0.13 R.Q. The “IL-6 R.Q. mRNA” value [4, 6] was 0.28 ± 0.11 R.Q, the “IL-18 R.Q. mRNA” value [4, 6] was 0.04 ± 0.01 R.Q and the “TNFα R.Q. mRNA” value [4, 6] was 0.27 ± 0.10 R.Q. The “VEGF R.Q. mRNA” value [4, 6] was 0.06 ± 0.03 R.Q, the ROS [4, 7] was 61 ± 40 % and the “IL-1β R.Q. mRNA” value [4, 7] was 20.81 ± 5.11 R.Q. For the same molecule, the “IL-6 R.Q. mRNA” value [4, 7] was 5.84 ± 1.13 R.Q, the “IL-18 R.Q. mRNA” value [4, 7] was 0.03 ± 0.01 R.Q and the “TNFα R.Q. mRNA” value [4, 7] was 5.39 ± 1.01 R.Q. For the same molecule, the “VEGF R.Q. mRNA” value [4, 7] was 0.04 ± 0.00 R.Q, the ROS [4, 8] was 159 ± 32% and the “IL-1β R.Q. mRNA” value [4, 8] was 27.76 ± 5.18 R.Q. The “IL-6 R.Q. mRNA” value [4, 8] was 9.78 ± 2.30 R.Q, the “IL-18 R.Q. mRNA” value [4, 8] was 0.01 ± 0.00 R.Q and the “TNFα R.Q. mRNA” value [4, 8] was 3.61 ± 1.82 R.Q. The “VEGF R.Q. mRNA” value [4, 8] was 0.20 ± 0.03 R.Q.
